Test results reported in EP4653437A2 (Innovo Therapeutics Inc., priority 2023, dated 2024).

How the values were obtained:
human 15-PGDH = target: T1, human 15-PGDH (Homo sapiens, UniProt P15428); assay: Evaluation of 15-PGDH inhibitory activity (fluorescence enzyme assay, NAD+/PGE2); assay type: biochemical; conditions: human 15-PGDH enzyme, fluorescence Vmax
T1 construct: purchased R&D System 5660-DH
T1 sequence (P15428 1-266): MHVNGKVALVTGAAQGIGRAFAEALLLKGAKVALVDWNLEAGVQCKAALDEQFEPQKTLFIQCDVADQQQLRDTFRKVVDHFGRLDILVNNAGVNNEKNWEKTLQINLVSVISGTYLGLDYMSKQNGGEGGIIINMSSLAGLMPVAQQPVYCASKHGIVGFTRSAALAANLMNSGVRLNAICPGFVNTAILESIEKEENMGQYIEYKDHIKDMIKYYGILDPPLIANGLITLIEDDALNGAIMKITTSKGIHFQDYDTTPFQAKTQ
Experimental: 15-PGDH inhibition activity of Example compounds was measured as follows. 6.7 ng of human 15-PGDH (R&D System# 5660-DH) enzyme (10 µL) was added to a black 96 well plate, 60 µL of buffer (50 mM Tris-HCl, pH 7.5, 0.01% Tween 20) was added, and 10 µL of 200 µM β-Nicotinamide adenine dinucleotide sodium salt (Sigma, Cat# N0632-5G) was added. 10 µL of (10x) compound solution in DMSO was added and reacted for 10 minutes at room temperature.

A549 cells = assay: Measurement of PGE2-increasing activity in A549 cells (IL-1β stimulated, PGE2 quantified in supernatant); assay type: cell-based; conditions: Homo sapiens, 24 h; concentration of 1 µM of each compound; IL-1β treated A549 cells; read-out: Increased PGE2 production in A549 cells
In short: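 A549 cells grown 24 h in F12K with 10% FBS, then switched to serum-free medium with or without IL-1β and compound (0.1% DMSO final). After 24 h at 37 °C, 5% CO2, supernatant PGE2 quantified by immunoassay.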

Structure (SMILES)	IC50 (human 15-PGDH)	fold induction at 1 µM (A549 cells)
O=C(c1cnn2c(-c3ccc(-c4n[nH]c(=O)o4)cc3)cccc12)N1CCCCC1 [Example 349, 5-[4-[3-(piperidine-1-carbonyl)pyrazolo[1,5-a]pyridin-7-yl]phenyl]-3H-1,3,4-oxadiazol-2-one]	≤ 100 nM	> 1.5
O=C(c1cnn2c(-c3ccc(-c4nnco4)cc3)cccc12)N1CCCCC1 [Example 350, [7-[4-(1,3,4-oxadiazol-2-yl)phenyl]pyrazolo[1,5-a]pyridin-3-yl]-(1-piperidyl)methanone]	≤ 100 nM	> 1.5
Cc1cnc(-c2ccc(-c3cccc4c(C(=O)N5CCCCC5)cnn34)cc2)s1 [Example 351, [7-[4-(5-methylthiazol-2-yl)phenyl]pyrazolo[1,5-a]pyridin-3-yl]-(1-piperidyl)methanone]	≤ 100 nM	> 1.5
O=C(c1cnn2c(-c3ccc(-c4ncon4)cc3)cccc12)N1CCCCC1 [Example 352, [7-[4-(1,2,4-oxadiazol-3-yl)phenyl]pyrazolo[1,5-a]pyridin-3-yl]-(1-piperidyl)methanone]	≤ 100 nM	> 1.5
CC1CCCN(C(=O)c2cnn3c(-c4ccc(N5CCOC5=O)nc4)cccc23)C1 (stereo not shown) [Example 353, 3-(5-(3-(3-methylpiperidine-1-carbonyl)pyrazolo[1,5-a]pyridin-7-yl)pyridin-2-yl)oxazolidin-2-one]	≤ 100 nM	> 1.5
CCC1CCCN(C(=O)c2cnn3c(-c4ccc(N5CCOC5=O)nc4)cccc23)C1 (stereo not shown) [Example 354, 3-(5-(3-(3-ethylpiperidine-1-carbonyl)pyrazolo[1,5-a]pyridin-7-yl)pyridin-2-yl)oxazolidin-2-one]	≤ 100 nM	> 1.5
O=C(c1cnn2c(-c3ccc(-n4cc([N+](=O)[O-])cn4)nc3)cccc12)N1CCCCC1 [Example 355, (7-(6-(4-nitro-1H-pyrazol-1-yl)pyridin-3-yl)pyrazolo[1,5-a]pyridin-3-yl)(piperidin-1-yl)methanone]	≤ 100 nM	> 1.5
Nc1cnn(-c2cc(-c3cccc4c(C(=O)N5CCCCC5)cnn34)cc(Br)n2)c1 [Example 356, (7-(2-(4-amino-1H-pyrazol-1-yl)-6-bromopyridin-4-yl)pyrazolo|[1,5-a]pyridin-3-yl)(piperidin-1-yl)methanone]	≤ 100 nM	> 1.5
Cn1nccc1-c1cc(-c2cccc3c(C(=O)N4CCCCC4)cnn23)cc(N2CC(O)C2)n1 [Example 357, (7-(2-(3-hydroxyazetidin-1-yl)-6-(1-methyl-1H-pyrazol-5-yl)pyridin-4-yl)pyrazolo[1,5-a]pyridin-3-yl)(piperidin-1-yl)methanone]	≤ 100 nM	> 1.5
Cc1nc(-c2ccc(-c3cccc4c(C(=O)N5CCCCC5)cnn34)cc2)cn1C [Example 358]	≤ 100 nM	> 1.5
Nc1nc(-c2ccc(-c3cccc4c(C(=O)N5CCCCC5)cnn34)cc2)no1 [Example 359, [7-[4-(5-amino-1,2,4-oxadiazol-3-yl)phenyl]pyrazolo[1,5-a]pyridin-3-yl]-(1-piperidyl)methanone]	≤ 100 nM	> 1.5
O=C(c1cnn2c(-c3ccc(-c4n[nH]c(=O)o4)nc3)cccc12)N1CCCCC1 [Example 360, 5-[5-[3-(piperidine-1-carbonyl)pyrazolo[1,5-a]pyridin-7-yl]-2-pyridyl]-3H-1,3,4-oxadiazol-2-one]	≤ 100 nM	> 1.5
O=C(c1cnn2c(-c3ccc(-c4noc(C(F)(F)F)n4)cc3)cccc12)N1CCCCC1 [Example 361, 1-piperidyl-[7-[4-[5-(trifluoromethyl)-1,2,4-oxadiazol-3-yl]phenyl]pyrazolo[1,5-a]pyridin-3-yl]methanone]	≤ 100 nM	> 1.5
O=C(Cc1cccnc1)Nc1ncc(-c2cccc3c(C(=O)N4CCCCC4)cnn23)cc1F [Example 362, N-(3-fluoro-5-(3-(piperidine-1-carbonyl)pyrazolo[1,5-a]pyridin-7-yl)pyridin-2-yl)-2-(pyridin-3-yl)acetamide]	≤ 100 nM	> 1.5
O=C(c1cnn2c(-c3cc(Br)cnc3N3CC(CO)C3)cccc12)N1CCCCC1 [Example 363, (7-(5-bromo-2-(3-(hydroxymethyl)azetidin-1-yl)pyridin-3-yl)pyrazolo[1,5-a]pyridin-3-yl)(piperidin-1-yl)methanone]	≤ 100 nM	< 1.5
Cc1nnc(-c2ccc(-c3cccc4c(C(=O)N5CCCCC5)cnn34)cn2)o1 [Example 364, [7-[6-(5-methyl-1,3,4-oxadiazol-2-yl)-3-pyridyl]pyrazolo[1,5-a]pyridin-3-yl]-(1-piperidyl)methanone]	≤ 100 nM	> 1.5
O=C(c1cnn2c(-c3ccc(-c4n[nH]c(=S)o4)nc3)cccc12)N1CCCCC1 [Example 365, 1-piperidyl-[7-[6-(2-thioxo-3H-1,3,4-oxadiazol-5-yl)-3-pyridyl]pyrazolo[1,5-a]pyridin-3-yl]methanone]	≤ 100 nM	> 1.5
O=C(c1cnn2c(-c3cc(-c4cnoc4)nc(N4CCOCC4)c3)cccc12)N1CCCCC1 [Example 366, (7-(2-(isoxazol-4-yl)-6-morpholinopyridin-4-yl)pyrazolo[1,5-a]pyridin-3-yl)(piperidin-1-yl)methanone]	≤ 100 nM	> 1.5
Cn1nccc1-c1cc(-c2cccc3c(C(=O)N4CCCCC4)cnn23)cc(N2CCOC2=O)n1 [Example 367, 3-(6-(1-methyl-1H-pyrazol-5-yl)-4-(3-(piperidine-1-carbonyl)pyrazolo[1,5-a]pyridin-7-yl)pyridin-2-yl)oxazolidin-2-one]	≤ 100 nM	> 1.5
Cc1noc(C)c1-c1cc(-c2cccc3c(C(=O)N4CCCCC4)cnn23)cc(N2CCOC2=O)n1 [Example 368, 3-(6-(3,5-dimethylisoxazol-4-yl)-4-(3-(piperidine-1-carbonyl)pyrazolo[1,5-a]pyridin-7-yl)pyridin-2-yl)oxazolidin-2-one]	≤ 100 nM	> 1.5
Cn1nccc1-c1cc(-c2cccc3c(C(=O)N4CCCCC4)cnn23)cc(N2CCOCC2)n1 [Example 369, (7-(2-(1-methyl-1H-pyrazol-5-yl)-6-morpholinopyridin-4-yl)pyrazolo[1,5-a]pyridin-3-yl)(piperidin-1-yl)methanone]	≤ 100 nM	> 1.5
O=C(c1cnn2c(-c3cc(-c4cncc(F)c4)nc(N4CCOC4=O)c3)cccc12)N1CCCCC1 [Example 370, 3-(5'-fluoro-4-(3-(piperidine-1-carbonyl)pyrazolo[1,5-a]pyridin-7-yl)-[2,3'-bipyridin]-6-yl)oxazolidin-2-one]	≤ 100 nM	> 1.5
Cc1noc(C)c1-c1cc(-c2cccc3c(C(=O)N4CCCCC4)cnn23)cc(N2CCOCC2)n1 [Example 371, (7-(2-(3,5-dimethylisoxazol-4-yl)-6-morpholinopyridin-4-yl)pyrazolo[1,5-a]pyridin-3-yl)(piperidin-1-yl)methanone]	≤ 100 nM	> 1.5
Cc1ncc(-c2cc(-c3cccc4c(C(=O)N5CCCCC5)cnn34)cc(N3CCOC3=O)n2)cn1 [Example 372, 3-(6-(2-methylpyrimidin-5-yl)-4-(3-(piperidine-1-carbonyl)pyrazolo[1,5-a]pyridin-7-yl)pyridin-2-yl)oxazolidin-2-one]	≤ 100 nM	> 1.5
O=C(c1cnn2c(-c3cnc(-c4n[nH]c(=O)o4)c(F)c3)cccc12)N1CCCCC1 [Example 373, 5-[3-fluoro-5-[3-(piperidine-1-carbonyl)pyrazolo[1,5-a]pyridin-7-yl]-2-pyridyl]-3H-1,3,4-oxadiazol-2-one]	≤ 100 nM	> 1.5
O=C(c1cnn2c(-c3cncc(-c4ncon4)c3)cccc12)N1CCCCC1 [Example 374, (7-(5-(1,2,4-oxadiazol-3-yl)pyridin-3-yl)pyrazolo[1,5-a]pyridin-3-yl)(piperidin-1-yl)methanone]	≤ 100 nM	> 1.5
CN(C)C1CN(c2cc(-c3cccc4c(C(=O)N5CCCCC5)cnn34)cc(-c3cncc(F)c3)n2)C1 [Example 375, (7-(6-(3-(dimethylamino)azetidin-1-yl)-5'-fluoro-[2,3'-bipyridin]-4-yl)pyrazolo[1,5-a]pyridin-3-yl)(piperidin-1-yl)methanone]	≤ 100 nM	> 1.5
O=C(c1cnn2c(-c3cc(-c4cncc(F)c4)nc(N4CCOCC4)c3)cccc12)N1CCCCC1 [Example 376, (7-(5'-fluoro-6-morpholino-[2,3'-bipyridin]-4-yl)pyrazolo[1,5-a]pyridin-3-yl)(piperidin-1-yl)methanone]	≤ 100 nM	> 1.5
Cc1ncc(-c2cc(-c3cccc4c(C(=O)N5CCCCC5)cnn34)cc(N3CCOCC3)n2)cn1 [Example 377, (7-(2-(2-methylpyrimidin-5-yl)-6-morpholinopyridin-4-yl)pyrazolo[1,5-a]pyridin-3-yl)(piperidin-1-yl)methanone]	≤ 100 nM	> 1.5
